In PubChem BioAssay (NCI):
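Exposure lasted 48 hours, with cells grown in 96-well plates and compounds tested at five concentrations. TGI is the concentration that stops growth completely.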

What was measured:
Test in all cases: inhibition of tumour cell growth, NCI panel, 48 h
COLO 205 colon = system: COLO 205 colon
A498 renal = system: A498 renal
MALME-3M melanoma = system: MALME-3M melanoma
HCT-116 colon = system: HCT-116 colon
A549 NSCLC = system: A549 NSCLC
SN12C renal = system: SN12C renal
UACC-257 melanoma = system: UACC-257 melanoma
HL-60(TB) leukemia = system: HL-60(TB) leukemia
CCRF-CEM leukemia = system: CCRF-CEM leukemia
SK-MEL-28 melanoma = system: SK-MEL-28 melanoma
IGROV1 ovarian = system: IGROV1 ovarian
NCI-H460 lung = system: NCI-H460 lung
OVCAR-5 ovarian = system: OVCAR-5 ovarian
TK-10 renal = system: TK-10 renal
HOP-92 NSCLC = system: HOP-92 NSCLC
UACC-62 melanoma = system: UACC-62 melanoma
HCT-15 colon = system: HCT-15 colon
PC-3 prostate = system: PC-3 prostate
SF-268 CNS = system: SF-268 CNS

| SMILES | TGI (COLO 205 colon) [µM] | TGI (A498 renal) [µM] | TGI (MALME-3M melanoma) [µM] | TGI (HCT-116 colon) [µM] | TGI (A549 NSCLC) [µM] | TGI (SN12C renal) [µM] | TGI (UACC-257 melanoma) [µM] | TGI (HL-60(TB) leukemia) [µM] | TGI (CCRF-CEM leukemia) [µM] | TGI (SK-MEL-28 melanoma) [µM] | TGI (IGROV1 ovarian) [µM] | TGI (NCI-H460 lung) [µM] | TGI (OVCAR-5 ovarian) [µM] | TGI (TK-10 renal) [µM] | TGI (HOP-92 NSCLC) [µM] | TGI (UACC-62 melanoma) [µM] | TGI (HCT-15 colon) [µM] | TGI (PC-3 prostate) [µM] | TGI (SF-268 CNS) [µM] |
| --- | --- | --- | --- | --- | --- | --- | --- | --- | --- | --- | --- | --- | --- | --- | --- | --- | --- | --- | --- |
| C[C@H]1C[C@@H]2[C@H]([C@@H](O)C[C@@]3(C)[C@H]2CC[C@]3(O)C(=O)CO)[C@@]2(C)C=CC(=O)C=C12 | > 100 | > 100 | > 100 | > 100 | > 100 | > 100 | > 100 | > 100 | > 100 | > 100 | > 100 | > 100 | > 100 | > 100 | > 100 | > 100 | > 100 |  |  |
| O=C(COc1ccc(Cl)c(Cl)c1)Nc1ccc[n+](Cc2ccc(S(=O)(=O)F)c(Cl)c2)c1 | > 100 | > 100 | > 100 | > 100 | > 100 | > 100 | > 100 | > 100 |  | > 100 | > 100 | > 100 | > 100 | > 100 | > 100 | > 100 | > 100 | > 100 | > 100 |
| Cc1ccc(O)c(Cc2nc3ccccc3nc2-c2cccc(Cl)c2)c1 | > 100 |  | > 100 | > 100 | > 100 | > 100 | > 100 | > 100 |  |  | > 100 | > 100 | > 100 | > 100 | 78.5 | > 100 | 46.1 | > 100 | > 100 |
| CNC(=O)OCc1nc(SC)n(C)c1CO | > 100 | > 100 | 3.42 | > 100 | > 100 | > 100 | > 100 | > 100 | > 100 | > 100 | > 100 | > 100 | > 100 |  | > 100 | > 100 | > 100 |  | > 100 |
| CC(=O)Oc1ccccc1 |  | > 100 | > 100 | > 100 | > 100 | > 100 | > 100 | > 100 | > 100 | > 100 | > 100 | > 100 | > 100 |  |  | > 100 | > 100 |  | > 100 |
| C[n+]1cccc(NC(=O)c2ccc(NC(=O)C34CCC(C(=O)Nc5ccc(C(=O)Nc6ccc[n+](C)c6)cc5)(CC3)CC4)cc2)c1 |  | > 100 |  | > 100 | > 100 | 75.1 | > 100 | 9.33 | > 100 | > 100 | > 100 | > 100 | > 100 |  | > 100 | > 100 | > 100 |  | > 100 |
| CC(=O)Nc1ccc2c(c1)/C(=C\c1ccc([N+](C)(C)C)cc1)c1ccccc1-2 | 35.6 | > 100 | > 100 | > 100 | > 100 | > 100 | 79.1 | 59.5 | 50.9 | > 100 | > 100 | > 100 | 80.4 | > 100 | 79.9 | > 100 | > 100 | > 100 | > 100 |
| COc1ccccc1/C=C/c1ccnc2ccccc12 | 33.2 | 29.5 | 24.8 | 26.5 | 31 | 37.3 | 29.5 | 26 | 34.8 | 31.1 | 19.9 | 28.9 | 32.4 | 30.9 | 26.2 | 24.5 | 25 | 27.3 | 29.4 |
| COc1cc2c(c(OC)c1OC)-c1ccc(OC)c(=O)cc1C(NC(=O)COc1ccccc1)CC2 (stereo not drawn) | < 0.01 | 2.46 | > 100 |  | > 100 | > 100 | > 100 |  | > 63.4 | > 100 | > 92.3 | > 10.6 | > 100 | > 93.7 | 2.91 | > 100 | > 100 | > 100 | 61.6 |
